# Assay results reported in ChEMBL document CHEMBL4270635, “HDAC3 is a potential validated target for cancer: An overview on the benzamide-based selective HDAC3 inhibitors through comparative SAR/QSAR/QAAR approaches” (Eur J Med Chem, 2018).
# Tests used:
# [1] = molecular target: T1, Histone deacetylase 3/Nuclear receptor corepressor 2 (HDAC3/NCoR2) (Homo sapiens, UniProt O15379); assay: Inhibition of full length human C-terminal His-tagged HDAC3/N-terminal GST-tagged NCOR2 (395 to 489 residues) co-expressed in baculovirus infected sf9 cells using (FAM)-labeled acetylated peptide substrate after 60 mins by caliper microfluidic mobility shift assay
# T1 sequence (O15379 whole entry, the tested form may be a part): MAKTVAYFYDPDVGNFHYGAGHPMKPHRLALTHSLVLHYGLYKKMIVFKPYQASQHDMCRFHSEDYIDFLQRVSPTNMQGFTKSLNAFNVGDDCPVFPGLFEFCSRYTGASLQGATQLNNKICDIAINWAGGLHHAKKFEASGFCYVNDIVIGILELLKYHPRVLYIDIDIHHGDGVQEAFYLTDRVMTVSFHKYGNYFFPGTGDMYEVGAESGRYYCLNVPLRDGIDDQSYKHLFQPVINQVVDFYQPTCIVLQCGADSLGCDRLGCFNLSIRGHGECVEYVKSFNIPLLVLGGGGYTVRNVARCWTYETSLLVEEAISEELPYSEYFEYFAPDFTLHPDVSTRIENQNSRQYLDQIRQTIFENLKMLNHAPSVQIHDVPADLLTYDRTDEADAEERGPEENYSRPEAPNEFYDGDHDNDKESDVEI
# T1 sequence (Q9Y618 whole entry, further chain, the tested form may be a part): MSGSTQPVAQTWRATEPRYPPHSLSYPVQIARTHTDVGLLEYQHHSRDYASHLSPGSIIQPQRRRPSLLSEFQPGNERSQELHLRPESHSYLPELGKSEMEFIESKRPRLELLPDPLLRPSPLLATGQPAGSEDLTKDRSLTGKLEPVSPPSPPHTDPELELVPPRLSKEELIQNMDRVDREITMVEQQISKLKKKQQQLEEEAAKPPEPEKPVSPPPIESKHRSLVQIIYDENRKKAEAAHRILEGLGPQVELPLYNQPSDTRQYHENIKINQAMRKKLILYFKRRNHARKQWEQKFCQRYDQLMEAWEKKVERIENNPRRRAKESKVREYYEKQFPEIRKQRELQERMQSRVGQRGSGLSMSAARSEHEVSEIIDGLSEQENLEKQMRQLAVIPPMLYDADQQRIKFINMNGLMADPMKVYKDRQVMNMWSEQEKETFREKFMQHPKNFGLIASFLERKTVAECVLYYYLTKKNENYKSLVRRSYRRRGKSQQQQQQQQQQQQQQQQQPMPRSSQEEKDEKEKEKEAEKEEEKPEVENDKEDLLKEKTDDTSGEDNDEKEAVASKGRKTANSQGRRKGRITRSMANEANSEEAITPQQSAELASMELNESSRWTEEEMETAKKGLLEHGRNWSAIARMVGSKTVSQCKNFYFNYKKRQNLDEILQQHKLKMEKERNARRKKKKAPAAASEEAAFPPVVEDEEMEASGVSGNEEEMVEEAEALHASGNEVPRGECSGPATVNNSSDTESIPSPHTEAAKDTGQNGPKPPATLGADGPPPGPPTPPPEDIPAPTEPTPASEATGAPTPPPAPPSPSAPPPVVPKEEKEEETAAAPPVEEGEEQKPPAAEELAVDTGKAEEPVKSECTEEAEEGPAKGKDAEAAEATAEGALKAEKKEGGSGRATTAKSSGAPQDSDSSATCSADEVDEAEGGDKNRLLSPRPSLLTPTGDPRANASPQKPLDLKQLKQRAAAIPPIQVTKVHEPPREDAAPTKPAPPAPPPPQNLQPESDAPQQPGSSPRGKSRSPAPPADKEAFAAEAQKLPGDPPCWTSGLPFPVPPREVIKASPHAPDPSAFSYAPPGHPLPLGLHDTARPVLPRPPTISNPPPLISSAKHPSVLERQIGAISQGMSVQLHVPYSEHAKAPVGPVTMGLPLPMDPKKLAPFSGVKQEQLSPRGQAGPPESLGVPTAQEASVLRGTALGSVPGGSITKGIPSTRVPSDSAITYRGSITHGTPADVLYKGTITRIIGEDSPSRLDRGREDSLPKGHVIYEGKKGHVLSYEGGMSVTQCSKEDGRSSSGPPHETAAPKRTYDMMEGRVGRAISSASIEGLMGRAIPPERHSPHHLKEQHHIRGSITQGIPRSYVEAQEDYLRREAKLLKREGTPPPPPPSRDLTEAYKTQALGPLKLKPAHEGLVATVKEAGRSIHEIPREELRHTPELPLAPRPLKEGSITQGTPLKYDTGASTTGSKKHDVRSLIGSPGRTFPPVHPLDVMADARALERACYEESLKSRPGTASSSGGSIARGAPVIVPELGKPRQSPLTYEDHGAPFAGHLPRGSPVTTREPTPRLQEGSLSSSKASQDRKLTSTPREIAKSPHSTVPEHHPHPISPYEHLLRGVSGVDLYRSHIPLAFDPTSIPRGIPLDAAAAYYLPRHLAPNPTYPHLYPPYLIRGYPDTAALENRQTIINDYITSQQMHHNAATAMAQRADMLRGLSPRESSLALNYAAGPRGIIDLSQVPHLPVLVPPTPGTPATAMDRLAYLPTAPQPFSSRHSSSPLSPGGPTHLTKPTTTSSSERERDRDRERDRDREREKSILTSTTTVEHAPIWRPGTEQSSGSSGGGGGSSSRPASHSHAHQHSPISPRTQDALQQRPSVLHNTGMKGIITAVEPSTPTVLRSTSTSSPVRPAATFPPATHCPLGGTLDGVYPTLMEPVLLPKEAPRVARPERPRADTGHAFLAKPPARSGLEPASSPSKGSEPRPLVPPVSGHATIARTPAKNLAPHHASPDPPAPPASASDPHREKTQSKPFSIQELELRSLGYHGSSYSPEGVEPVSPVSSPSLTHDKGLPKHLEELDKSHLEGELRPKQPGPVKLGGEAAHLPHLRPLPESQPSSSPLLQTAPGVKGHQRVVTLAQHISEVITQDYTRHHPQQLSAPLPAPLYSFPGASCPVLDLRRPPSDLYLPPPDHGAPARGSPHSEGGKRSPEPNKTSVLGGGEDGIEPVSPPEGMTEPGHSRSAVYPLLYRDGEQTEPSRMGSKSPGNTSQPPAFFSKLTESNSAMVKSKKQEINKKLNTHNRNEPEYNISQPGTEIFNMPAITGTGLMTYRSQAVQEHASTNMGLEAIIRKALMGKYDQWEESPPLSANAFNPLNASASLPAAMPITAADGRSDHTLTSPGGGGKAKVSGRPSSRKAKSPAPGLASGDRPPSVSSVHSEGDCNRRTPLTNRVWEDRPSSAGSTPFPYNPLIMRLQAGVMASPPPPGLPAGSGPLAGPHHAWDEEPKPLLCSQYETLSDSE
# [2] = molecular target: T1, Histone deacetylase 3/Nuclear receptor corepressor 2 (HDAC3/NCoR2); assay: biochemical; assay type: cell-based
# Description: Inhibition of His6-tagged HDAC3/SMRT (395 to 489 residues) (unknown origin) co-expressed in baculovirus infected sf9 cells using (FAM)-labeled acetylated peptide substrate after 17 hrs by caliper microfluidic mobility shift assay
# Homo sapiens [3] = organism: Homo sapiens; assay: Selectivity ratio of IC50 for HDAC2 (unknown origin) to IC50 for HDAC3 (unknown origin)
# Homo sapiens [4] = organism: Homo sapiens; assay: Selectivity ratio of IC50 for HDAC1 (unknown origin) to IC50 for HDAC3 (unknown origin)
# Homo sapiens [5] = organism: Homo sapiens; assay: Selectivity ratio of IC50 for HDAC6 (unknown origin) to IC50 for HDAC3 (unknown origin)
# Homo sapiens [6] = organism: Homo sapiens; assay: Selectivity ratio of IC50 for HDAC7 (unknown origin) to IC50 for HDAC3 (unknown origin)
# Homo sapiens [7] = organism: Homo sapiens; assay: Selectivity ratio of IC50 for HDAC8 (unknown origin) to IC50 for HDAC3 (unknown origin)
# Homo sapiens [8] = organism: Homo sapiens; assay: Selectivity ratio of IC50 for HDAC4 (unknown origin) to IC50 for HDAC3 (unknown origin)
# Histone deacetylase 3 = Histone deacetylase 3 (Homo sapiens, UniProt O15379); assay: Inhibition of HDAC3 (unknown origin)
# Sequence of Histone deacetylase 3 (O15379 whole entry): as the sequence (O15379 whole entry, the tested form may be a part) above
IC50 [1] [nM],IC50 [2] [nM],Compound,other results
1000,,Nc1cc(F)ccc1NC(=O)c1ccc(NC(=O)C2(c3ccccc3)CC2)cn1,
,21.1,Nc1ccccc1NC(=O)CCCCCCC(=O)NO,
60 to 170,,CC[C@@H](C(=O)Nc1ccc(C(=O)Nc2ccc(F)cc2N)cc1)c1ccccc1,
80,,CC(C)[C@H](C(=O)Nc1ccc(C(=O)Nc2ccc(F)cc2N)cc1)c1ccccc1,
,60.3,Nc1cccc(-c2csc(NC(=O)CCCCCCC(=O)Nc3ccccc3N)n2)c1,
,160,CC(C)(C)OC(=O)Nc1cccc(-c2csc(NC(=O)CCCCCCC(=O)Nc3ccccc3N)n2)c1,

# The next lines start with the molecule.
Compound,IC50 [1] [nM],IC50 [2] [nM],other results
CC[C@H](C(=O)Nc1ccc(C(=O)Nc2ccc(F)cc2N)cc1)c1ccccc1,110 to 530,,
C[C@H](C(=O)Nc1ccc(C(=O)Nc2ccc(F)cc2N)cc1)c1ccccc1,130 to 230,,
C[C@@H](C(=O)Nc1ccc(C(=O)Nc2ccc(F)cc2N)cc1)c1ccccc1,210 to 579,,
CC(=O)Nc1ccc(C(=O)Nc2ccc(F)cc2N)cc1,,,Ratio IC50 (Homo sapiens [3]): 17; Ratio IC50 (Homo sapiens [4]): 17
CC(C)[C@@H](C(=O)Nc1ccc(C(=O)Nc2ccc(F)cc2N)cc1)c1ccccc1,300 to 1700,,
Nc1cc(F)ccc1NC(=O)c1ccc(NC(=O)C2(c3ccccc3)CC2)cc1,200,,
CC(=O)Nc1cccc(-c2csc(NC(=O)CCCCCCC(=O)Nc3ccccc3N)n2)c1,,30,
Nc1ccccc1NC(=O)CCCCCCC(=O)Nc1ccc(-c2cn(Cc3ccccc3)nn2)cc1,,1500,
C=C1CN(Cc2ccc(C(=O)Nc3ccccc3N)cc2)C(=O)c2ccccc21,,,Ratio IC50 (Homo sapiens [5]): 2; Ratio IC50 (Homo sapiens [6]): 2; Ratio IC50 (Homo sapiens [3]): 2; Ratio IC50 (Homo sapiens [7]): 2; Ratio IC50 (Homo sapiens [8]): 2; Ratio IC50 (Homo sapiens [4]): 2; IC50 (Histone deacetylase 3): 16 nM
Nc1ccccc1NC(=O)CCCCCCC(=O)NOCc1ccccc1,,552,
CCOC(=O)Nc1cccc(-c2csc(NC(=O)CCCCCCC(=O)Nc3ccccc3N)n2)c1,,60,
